Experimental data: patent US5438052A, “Cephalosporin derivatives” (Hoffmann-La Roche Inc., priority 1991, dated 1995)
≈ marks a conversion by molar mass, not a printed value. Where two headings read alike, the source gives them in different places.

Key:
C. freundii 902 = test: Minimum inhibitory concentration in vitro, agar dilution method; type: cell-based; conditions: Citrobacter freundii
Excerpt: (§1) 1. Minimum Inhibitory Concentration in vitro
(§2) The activities ascertained, minimum inhibitory concentration (MIC) in μg/ml, are compiled in Table 1 hereinafter: […]

E. cloacae 908R = test: as above; type: cell-based; conditions: Enterobacter cloacae
Excerpt: as §1, §2

E. cloacae 908SSi = test: as above; type: cell-based; conditions: Enterobacter cloacae
Excerpt: as §1, §2

E. cloacae P99 = test: as above; type: cell-based; conditions: Enterobacter cloacae
Excerpt: as §1, §2

E. coli 25922 [1] = test: as above; type: cell-based; conditions: Escherichia coli
Excerpt: as §1, §2

K. oxytoca 1082 = test: as above; type: cell-based; conditions: Klebsiella oxytoca
Excerpt: as §1, §2

K. pneumoniae 418 = test: as above; type: cell-based; conditions: Klebsiella pneumoniae
Excerpt: as §1, §2

P. aeruginosa 27853 = test: as above; type: cell-based; conditions: Pseudomonas aeruginosa
Excerpt: as §1, §2

P. aeruginosa 799/61 = test: as above; type: cell-based; conditions: Pseudomonas aeruginosa
Excerpt: as §1, §2

P. aeruginosa 799/WT = test: as above; type: cell-based; conditions: Pseudomonas aeruginosa
Excerpt: as §1, §2

P. aeruginosa BA = test: as above; type: cell-based; conditions: Pseudomonas aeruginosa
Excerpt: as §1, §2

P. aeruginosa MK1184 = test: as above; type: cell-based; conditions: Pseudomonas aeruginosa
Excerpt: as §1, §2

P. mirabilis 2117 = test: as above; type: cell-based; conditions: Proteus mirabilis
Excerpt: as §1, §2

P. vulgaris 1028 = test: as above; type: cell-based; conditions: Proteus vulgaris
Excerpt: as §1, §2

S. aureus 6538 = test: as above; type: cell-based; conditions: Staphylococcus aureus
Excerpt: as §1, §2

S. marcescens 69438 = test: as above; type: cell-based; conditions: Serratia marcescens
Excerpt: as §1, §2

S. pneumoniae BA = test: as above; type: cell-based; conditions: Streptococcus pneumoniae; S. pneumoniae BA, agar dilution; read-out: MIC
Excerpt: as §1, §2

S. pyogenes 15 = test: as above; type: cell-based; conditions: Streptococcus pyogenes
Excerpt: as §1, §2

E. coli 25922 [2] = test: Experimental systemic septicaemia in the mouse; type: in vivo; conditions: 96 h
Outline: (§3)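 Albino mice (16-20 g) infected i.p. with overnight culture at about 5-100× the 48 h LD50; groups of 5. Compounds given s.c. in 2% Tween 80 at 1 and 3 h post-infection (P. aeruginosa also at 5 h). ED50 (mg/kg s.c.) by Probit from 4-day survival.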

[3] = system: Pseudomonas aeruginosa BA; test: Experimental systemic septicaemia in the mouse; type: in vivo; conditions: sc, 96 h
Outline: as §3

S. aureus Schoch = test: Experimental systemic septicaemia in the mouse; type: in vivo; conditions: Staphylococcus aureus, sc, 96 h
Outline: as §3

E. aerogenes CF153 = test: Minimum inhibitory concentration in vitro, agar dilution method; type: cell-based; conditions: Klebsiella aerogenes, CF153
Excerpt: as §1, §2

[4] = C. freundii 902, agar dilution, read-out: MIC
[5] = E. cloacae 908R, agar dilution, read-out: MIC
[6] = E. cloacae 908SSi, agar dilution, read-out: MIC
[7] = E. coli 25922, agar dilution, read-out: MIC
[8] = K. oxytoca 1082, agar dilution, read-out: MIC
[9] = K. pneumoniae 418, agar dilution, read-out: MIC
[10] = P. aeruginosa 27853, agar dilution, read-out: MIC
[11] = P. aeruginosa 799/61, agar dilution, read-out: MIC
[12] = P. aeruginosa 799/WT, agar dilution, read-out: MIC
[13] = P. aeruginosa BA, agar dilution, read-out: MIC
[14] = P. aeruginosa MK1184, agar dilution, read-out: MIC
[15] = P. mirabilis 2117, agar dilution, read-out: MIC
[16] = P. vulgaris 1028, agar dilution, read-out: MIC
[17] = S. aureus 6538, agar dilution, read-out: MIC
[18] = S. marcescens 69438, agar dilution, read-out: MIC
[19] = S. pyogenes 15, agar dilution, read-out: MIC
[20] = Escherichia coli, sc, E. coli 25922, albino mice, s.c. 1 and 3 hours after infection, survival after 4 days, read-out: ED50
[21] = P. aeruginosa BA, albino mice, s.c. 1, 3 and 5 hours after infection, survival after 4 days, read-out: ED50
[22] = S. aureus Schoch, albino mice, s.c. 1 and 3 hours after infection, survival after 4 days, read-out: ED50

Cc1cc(SCC2=C(C(=O)O)N3C(=O)[C@@H](NC(=O)/C(=N\OC(C)(C)C(=O)NNC(=O)c4ccc(O)c(O)c4)c4csc(N)n4)[C@H]3SC2)n2nc(COC(=O)c3ccc(O)c(O)c3)nc2n1 [Example 43]
MIC (C. freundii 902; [4]): < 0.1 µg/mL | MIC (E. cloacae 908R; [5]): 0.12 µg/mL (≈ 0.126 µM) | MIC (E. cloacae 908SSi; [6]): 2 µg/mL (≈ 2.11 µM) | MIC (E. cloacae P99): 0.12 µg/mL (≈ 0.126 µM) | MIC (E. coli 25922 [1]; [7]): < 0.1 µg/mL | MIC (K. oxytoca 1082; [8]): < 0.1 µg/mL | MIC (K. pneumoniae 418; [9]): < 0.1 µg/mL | MIC (P. aeruginosa 27853; [10]): 0.25 µg/mL (≈ 0.263 µM) | MIC (P. aeruginosa 799/61; [11]): < 0.1 µg/mL | MIC (P. aeruginosa 799/WT; [12]): < 0.1 µg/mL | MIC (P. aeruginosa BA; [13]): < 0.1 µg/mL | MIC (P. aeruginosa MK1184; [14]): < 0.1 µg/mL | MIC (P. mirabilis 2117; [15]): 0.12 µg/mL (≈ 0.126 µM) | MIC (P. vulgaris 1028; [16]): 0.12 µg/mL (≈ 0.126 µM) | MIC (S. aureus 6538; [17]): 16 µg/mL (≈ 16.8 µM) | MIC (S. marcescens 69438; [18]): 0.12 µg/mL (≈ 0.126 µM) | MIC (S. pneumoniae BA): 4 µg/mL (≈ 4.21 µM) | MIC (S. pyogenes 15; [19]): 8 µg/mL (≈ 8.42 µM) | ED50 (E. coli 25922 [2]; [20]): 0.05 mg/kg | ED50 [3, 21]: 0.019 mg/kg | ED50 (S. aureus Schoch; [22]): 12 mg/kg

Cc1cc(SCC2=C(C(=O)[O-])N3C(=O)[C@@H](NC(=O)/C(=N\OCc4ccc(O)c(O)c4)c4csc(N)n4)[C@H]3SC2)n2nc(CS(=O)(=O)c3ccc(O)c(O)c3)nc2n1.[Na+] [Example 11, (6R,7R)-7-[(Z)-2-(2-amino-4-thiazolyl)-2-[[(3,4-dihydroxybenzyl)oxy]imino]acetamido]-3-[[[2-[[(3,4-dihydroxyphenyl)sulphonyl]methyl]-5-methyl-s-triazolo[1,5-a]pyrimidin-7-yl]thio]methyl]-8-oxo-5-thia-1-azabicyclo[4.2.0]oct-2-ene-2-carboxylic acid sodium salt (1:1)]
MIC (C. freundii 902; 902): 0.12 µg/mL | MIC (E. aerogenes CF153): 1 µg/mL | MIC (E. cloacae 908R; 908R): 2 µg/mL | MIC (E. cloacae 908SSi; 908SSI): 4 µg/mL | MIC (E. cloacae P99): 16 µg/mL | MIC (E. coli 25922 [1]; 25922): < 0.1 µg/mL | MIC (K. oxytoca 1082; 1082): < 0.1 µg/mL | MIC (K. pneumoniae 418; 418): < 0.1 µg/mL | MIC (P. aeruginosa 27853; 27853): < 0.1 µg/mL | MIC (P. aeruginosa 799/61; 799/61): < 0.1 µg/mL | MIC (P. aeruginosa 799/WT; 799/WT): 0.12 µg/mL | MIC (P. aeruginosa BA): 0.12 µg/mL | MIC (P. aeruginosa MK1184; MK1184): < 0.1 µg/mL | MIC (P. mirabilis 2117; 2117): 0.12 µg/mL | MIC (P. vulgaris 1028; 1028): 0.25 µg/mL | MIC (S. aureus 6538; 6538): 8 µg/mL | MIC (S. marcescens 69438; 69438): 0.25 µg/mL | MIC (S. pyogenes 15; 15): 2 µg/mL | ED50 (E. coli 25922 [2]; Escherichia coli, 25922, sc): < 0.05 mg/kg | ED50 [3]: 0.035 mg/kg | ED50 (S. aureus Schoch): 3.5 mg/kg

Nc1nc(/C(=N/OCc2cc(=O)c(O)co2)C(=O)N[C@@H]2C(=O)N3C(C(=O)O)=C(CSc4cc(-c5ccc(O)c(O)c5)nc5ccnn45)CS[C@H]23)cs1 [Example 14, (6R,7R)-7-[(Z)-2-(2-amino-4-thiazolyl)-2-[[(5-hydroxy-4-oxo-4H-pyran-2-yl)methoxy]imino]acetamido]-3-[[[5-(3,4-dihydroxyphenyl)pyrazolo[1,5-a]pyrimidin-7-yl]thio]methyl]-8-oxo-5-thia-1-azabicyclo[4.2.0]oct-2-ene-2-carboxylicacid]
MIC (C. freundii 902; [4]): 1 µg/mL (≈ 1.31 µM) | MIC (E. cloacae 908R; [5]): 2 µg/mL (≈ 2.62 µM) | MIC (E. cloacae 908SSi; [6]): 1 µg/mL (≈ 1.31 µM) | MIC (E. cloacae P99): 16 µg/mL (≈ 20.9 µM) | MIC (E. coli 25922 [1]; [7]): 0.12 µg/mL (≈ 0.157 µM) | MIC (K. oxytoca 1082; [8]): 0.12 µg/mL (≈ 0.157 µM) | MIC (K. pneumoniae 418; [9]): 0.06 µg/mL (≈ 0.0785 µM) | MIC (P. aeruginosa 27853; [10]): 4 µg/mL (≈ 5.23 µM) | MIC (P. aeruginosa 799/61; [11]): 0.06 µg/mL (≈ 0.0785 µM) | MIC (P. aeruginosa 799/WT; [12]): 1 µg/mL (≈ 1.31 µM) | MIC (P. aeruginosa BA; [13]): 4 µg/mL (≈ 5.23 µM) | MIC (P. aeruginosa MK1184; [14]): 16 µg/mL (≈ 20.9 µM) | MIC (P. mirabilis 2117; [15]): 0.5 µg/mL (≈ 0.654 µM) | MIC (P. vulgaris 1028; [16]): 0.25 µg/mL (≈ 0.327 µM) | MIC (S. aureus 6538; [17]): 16 µg/mL (≈ 20.9 µM) | MIC (S. marcescens 69438; [18]): 0.25 µg/mL (≈ 0.327 µM) | MIC (S. pneumoniae BA): 0.5 µg/mL (≈ 0.654 µM) | MIC (S. pyogenes 15; [19]): 0.5 µg/mL (≈ 0.654 µM) | ED50 (E. coli 25922 [2]; [20]): 4.4 mg/kg | ED50 [3, 21]: 7.1 mg/kg | ED50 (S. aureus Schoch; [22]): > 12 mg/kg

Cc1cc(SCC2=C(C(=O)[O-])N3C(=O)[C@@H](NC(=O)/C(=N\OCc4ccc(O)c(O)c4F)c4csc(N)n4)[C@H]3SC2)n2nc(CS(=O)(=O)c3ccc(O)c(O)c3)nc2n1.[Na+] [Example 12, (6R,7R)-7-[(Z)-2-(2-amino-4-thiazolyl)-2-[[(2-fluoro-3,4-dihydroxybenzyl)oxy]imino]acetamido]-3-[[[2-[[(3,4-dihydroxyphenyl)sulphonyl]methyl]-5-methyl-s-triazolo[1,5-a]pyrimidin-7-yl]thio]methyl]-8-oxo-5-thia-1-azabicyclo[4.2.0]oct-2-ene-2-carboxylic acid sodium salt (1:1)]
MIC (C. freundii 902; 902): < 0.1 µg/mL | MIC (E. aerogenes CF153): 4 µg/mL | MIC (E. cloacae 908R; 908R): 2 µg/mL | MIC (E. cloacae 908SSi; 908SSI): 4 µg/mL | MIC (E. cloacae P99): 8 µg/mL | MIC (E. coli 25922 [1]; 25922): < 0.1 µg/mL | MIC (K. oxytoca 1082; 1082): 0.5 µg/mL | MIC (K. pneumoniae 418; 418): < 0.1 µg/mL | MIC (P. aeruginosa 27853; 27853): < 0.1 µg/mL | MIC (P. aeruginosa 799/61; 799/61): < 0.1 µg/mL | MIC (P. aeruginosa 799/WT; 799/WT): < 0.1 µg/mL | MIC (P. aeruginosa BA): < 0.1 µg/mL | MIC (P. aeruginosa MK1184; MK1184): < 0.1 µg/mL | MIC (P. mirabilis 2117; 2117): 0.12 µg/mL | MIC (P. vulgaris 1028; 1028): 0.25 µg/mL | MIC (S. aureus 6538; 6538): 16 µg/mL | MIC (S. marcescens 69438; 69438): < 0.1 µg/mL | MIC (S. pyogenes 15; 15): 2 µg/mL | ED50 (E. coli 25922 [2]; Escherichia coli, 25922, sc): < 0.05 mg/kg | ED50 [3]: 0.028 mg/kg | ED50 (S. aureus Schoch): 6.2 mg/kg
